This assay concerns SARS-CoV-2. Conditions: […].

SMILES strings stand for the structures.

`C[C@H]1c2cccc(O)c2C(=O)C2=C(O)[C@]3(O)C(=O)C(C(N)=O)=C(O)[C@@H](N(C)C)[C@@H]3[C@@H](O)[C@@H]21` [doxycycline]: where the note is “doxycycline 100 mg twice daily with osimertinib”, the “time to symptom improvement” value was ≤ 1 week. Under “doxycycline 200 mg then 100 mg daily for 5 days”, the “time to improvement in all symptoms” value is given as ≤ 5 days.

Source of the values: US20230158049A1, “COMPOSITIONS AND METHODS FOR TREATING VIRUSES” (University of Virginia Patent Foundation, priority 2020, published 2023).
